How the values were obtained:
Assay in all cases: relative viability (nuclei count vs DMSO), 5 days (fraction); higher = more cells survive
[1] = compound: CC1=C(N=C(N=C1N)[C@H](CC(=O)N)NC[C@@H](C(=O)N)N)C(=O)N[C@@H]([C@H](C2=CN=CN2)OC3C(C(C(C(O3)CO)O)O)OC4C(C(C(C(O4)CO)O)OC(=O)N)O)C(=O)N[C@H](C)[C@H]([C@H](C)C(=O)N[C@@H]([C@@H](C)O)C(=O)NCCC5=NC(=CS5)C6=NC(=CS6)C(=O)NCCC[S+](C)C)O [Bleomycin] + CC(=O)c1c(C)c2cnc(Nc3ccc(N4CCNCC4)cn3)nc2n(C2CCCC2)c1=O [Palbociclib] (partner 0.5 µM); conditions: main component drawn
In short: (§1)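 Lung cancer cell lines in 1536-well plates got either a single drug or a fixed anchor-drug dose together with five library-drug doses (not always all listed) in √10 steps, by pin tool, on the day after seeding. Nuclei were counted after 5 days, and relative viability is the treated-to-vehicle ratio of nuclei counts. Values are medians of duplicate plates.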

[2] = compound: CC1=C(N=C(N=C1N)[C@H](CC(=O)N)NC[C@@H](C(=O)N)N)C(=O)N[C@@H]([C@H](C2=CN=CN2)OC3C(C(C(C(O3)CO)O)O)OC4C(C(C(C(O4)CO)O)OC(=O)N)O)C(=O)N[C@H](C)[C@H]([C@H](C)C(=O)N[C@@H]([C@@H](C)O)C(=O)NCCC5=NC(=CS5)C6=NC(=CS6)C(=O)NCCC[S+](C)C)O [Bleomycin] + Cc1nc(Nc2ncc(C(=O)Nc3c(C)cccc3Cl)s2)cc(N2CCN(CCO)CC2)n1 [Dasatinib] (partner 0.075 µM); conditions: main component drawn
In short: as §1

[3] = compound: CC1=C(N=C(N=C1N)[C@H](CC(=O)N)NC[C@@H](C(=O)N)N)C(=O)N[C@@H]([C@H](C2=CN=CN2)OC3C(C(C(C(O3)CO)O)O)OC4C(C(C(C(O4)CO)O)OC(=O)N)O)C(=O)N[C@H](C)[C@H]([C@H](C)C(=O)N[C@@H]([C@@H](C)O)C(=O)NCCC5=NC(=CS5)C6=NC(=CS6)C(=O)NCCC[S+](C)C)O [Bleomycin] + Nc1ncn([C@H]2C[C@H](O)[C@@H](CO)O2)c(=O)n1 [Decitabine] (partner 2 µM); conditions: main component drawn
In short: as §1

[4] = compound: COc1cc([C@@H]2c3cc4c(cc3[C@@H](O[C@@H]3O[C@@H]5CO[C@@H](C)O[C@H]5[C@H](O)[C@H]3O)[C@H]3COC(=O)[C@H]23)OCO4)cc(OC)c1O [Etoposide] + Cc1nc(NC(=O)N2CCC[C@H]2C(N)=O)sc1-c1ccnc(C(C)(C)C(F)(F)F)c1 [Alpelisib] (partner 2 µM)
In short: as §1

## UMC-11
[1]; first compound 0.01 µM
  relative viability: 0.311
[1]; first compound 0.03162 µM
  relative viability: 0.334
[1]; first compound 0.1 µM
  relative viability: 0.355
[1]; first compound 0.3162 µM
  relative viability: 0.313
[1]; first compound 1 µM
  relative viability: 0.263
[2]; first compound 0.01 µM
  relative viability: 0.448
[2]; first compound 0.03162 µM
  relative viability: 0.511
[2]; first compound 0.1 µM
  relative viability: 0.495
[2]; first compound 0.3162 µM
  relative viability: 0.385
[2]; first compound 1 µM
  relative viability: 0.328
[3]; first compound 0.01 µM
  relative viability: 0.493
[3]; first compound 0.03162 µM
  relative viability: 0.509
[3]; first compound 0.1 µM
  relative viability: 0.473
[3]; first compound 0.3162 µM
  relative viability: 0.528
[3]; first compound 1 µM
  relative viability: 0.404
[4]; first compound 0.01 µM
  relative viability: 0.943
[4]; first compound 0.03162 µM
  relative viability: 1.11
[4]; first compound 0.3162 µM
  relative viability: 0.352
[4]; first compound 1 µM
  relative viability: 0.222

Reference: the supplement of paper PMC10307832
